Test results reported in the supplement of paper PMC10307832.

Experiments:
Assay in all cases: relative viability (nuclei count vs DMSO), 5 days (fraction); higher = more cells survive
[1] = compound: CC1=C(C(=O)N2C=CSC2=N1)CCN3CCC(=C(C4=CC=CC=C4)C5=CC=C(C=C5)F)CC3 + C[C@]1(O)C[C@@H](c2nc(-c3ccc4ccc(-c5ccccc5)nc4c3)c3c(N)nccn32)C1 [Linsitinib] (partner 1 µM)
In short: (§1)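 Lung cancer cell lines in 1536-well plates got either a single drug or a fixed anchor-drug dose together with five library-drug doses (not always all listed) in √10 steps, by pin tool, on the day after seeding. Nuclei were counted after 5 days, and relative viability is the treated-to-vehicle ratio of nuclei counts. Values are medians of duplicate plates.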

[2] = compound: CC1=C(C(=O)N2C=CSC2=N1)CCN3CCC(=C(C4=CC=CC=C4)C5=CC=C(C=C5)F)CC3 + Nc1nc2[nH]cc(CCc3ccc(C(=O)N[C@@H](CCC(=O)O)C(=O)O)cc3)c2c(=O)[nH]1 [Pemetrexed] (partner 0.2 µM)
In short: as §1

[3] = compound: CC1=C(C(=O)N2C=CSC2=N1)CCN3CCC(=C(C4=CC=CC=C4)C5=CC=C(C=C5)F)CC3 + O=C(CCCCCCC(=O)Nc1ccccc1)NO [Vorinostat] (partner 1 µM)
In short: as §1

[4] = compound: CC1=C(C(=O)N2C=CSC2=N1)CCN3CCC(=C(C4=CC=CC=C4)C5=CC=C(C=C5)F)CC3 + O=C(c1cc(Cc2n[nH]c(=O)c3ccccc23)ccc1F)N1CCN(C(=O)C2CC2)CC1 [Olaparib] (partner 8 µM)
In short: as §1

Cell Line	relative viability ([1]; first compound 0.08 µM)	relative viability ([1]; first compound 0.253 µM)	relative viability ([1]; first compound 0.8 µM)	relative viability ([1]; first compound 2.53 µM)	relative viability ([1]; first compound 8 µM)	relative viability ([2]; first compound 0.08 µM)	relative viability ([2]; first compound 0.253 µM)	relative viability ([2]; first compound 0.8 µM)	relative viability ([2]; first compound 2.53 µM)	relative viability ([2]; first compound 8 µM)	relative viability ([3]; first compound 0.08 µM)	relative viability ([3]; first compound 0.253 µM)	relative viability ([3]; first compound 0.8 µM)	relative viability ([3]; first compound 2.53 µM)	relative viability ([3]; first compound 8 µM)	relative viability ([4]; first compound 0.08 µM)	relative viability ([4]; first compound 0.253 µM)	relative viability ([4]; first compound 0.8 µM)	relative viability ([4]; first compound 2.53 µM)	relative viability ([4]; first compound 8 µM)
LCLC-97TM1	0.185	0.161	0.19	0.197	0.164	0.196	0.19	0.173	0.198	0.196	0.521	0.831	0.754	0.734	0.415	0.414	0.342	0.425	0.452	0.344
LCLC-103H	1.03	1.04	0.973	0.924	0.858	0.542	0.464	0.437	0.437	0.49	0.891	0.784	0.76	0.75	0.709	0.876	0.71	0.859	0.735	0.667
LK-2	0.548	0.531	0.846	0.502	0.529	0.243	0.286	0.285	0.281	0.181	0.266	0.233	0.333	0.319	0.199	0.726	0.728	0.736	0.756	0.514
LOU-NH91	0.923	0.932	1.01	1.02	0.821	0.303	0.3	0.438	0.387	0.346	0.973	0.832	0.856	0.948	0.776	0.872	0.845	0.928	0.946	0.813
LU99A	0.565	0.495	0.517	0.666	0.446	0.167	0.193	0.164	0.168	0.152	0.433	0.418	0.381	0.525	0.207	0.151	0.244	0.234	0.254	0.227
LXF-289	0.948	1.1	0.989	0.96	0.83	0.931	0.883	0.871	0.901	0.76	0.527	0.813	0.75	0.738	0.613	0.987	1.32	1.07	1	0.635
NCI-H23	0.525	0.762	0.616	0.676	0.339	0.698	0.55	0.585	0.804	0.516	0.665	0.564	0.473	0.572	0.32	0.287	0.281	0.274	0.276	0.23
NCI-H322M	0.808	0.924	0.926	1.01	0.702	0.686	0.622	0.555	0.706	0.683	0.898	0.845	0.862	0.953	0.943	0.74	0.801	0.678	0.813	0.738
NCI-H358	0.819	0.74	0.779	0.874	0.561	0.204	0.196	0.16	0.179	0.162	0.687	0.753	0.808	0.885	0.441	0.654	0.611	0.613	0.774	0.502
NCI-H441	–	0.541	0.777	0.654	0.355	0.289	0.255	0.252	0.296	0.254	0.998	0.628	0.765	1.05	0.61	0.5	0.502	0.515	0.642	0.367
NCI-H460	0.475	0.729	0.783	1.13	0.435	0.0657	0.059	0.0626	0.0637	0.0907	0.516	0.352	1.05	1.22	0.261	0.441	0.361	0.423	0.409	0.343
NCI-H520	1.13	0.723	0.902	0.943	0.768	0.726	0.566	0.691	0.778	0.477	0.729	0.751	0.743	0.962	0.489	0.358	0.342	0.341	0.31	0.306
NCI-H596	0.935	1.1	1.2	1.03	0.755	0.49	0.511	0.488	0.584	0.466	0.57	0.576	0.626	0.583	0.587	0.67	0.646	0.677	0.695	0.708
NCI-H647	1.1	0.895	1.16	1.86	0.846	0.185	0.149	0.185	0.166	0.184	0.681	0.574	0.603	0.514	0.333	0.489	0.518	0.793	0.481	0.358
NCI-H650	–	0.81	0.779	0.878	0.608	1.02	0.957	0.923	1.05	0.871	0.731	0.395	0.482	0.486	0.369	0.44	0.363	0.345	0.412	0.352
NCI-H661	0.581	0.607	0.675	0.483	0.553	0.961	0.98	0.924	0.995	0.493	0.765	0.761	0.817	0.838	0.406	0.797	0.73	0.8	0.783	0.463
